This note sets out measurements from the NIST ThermoML archive (doi:10.1021/acs.jced.6b00552).

± gives the expanded uncertainty stated by the source.

Series [1] in a line: Molar enthalpy of transition or fusion. Conditions: Crystal; DSC.
For series [2] the following is noted: Crystal; DSC.

Consider `C[C@@H]1O[C@@H](O[C@H]2[C@H](Oc3cc(O)c(C(=O)CCc4ccc(O)cc4)c(O)c3)O[C@H](CO)[C@@H](O)[C@@H]2O)[C@H](O)[C@H](O)[C@H]1O` [naringin dihydrochalcone], for which the “Molar enthalpy of transition or fusion” value in series [1] came to 7.08 ± 0.454 kcal/mol. For the same compound, the Triple point temperature in series [2] turned out to be 432.22 ± 1.2 K.
In the case of `O=C(CCc1ccc(O)cc1)c1c(O)cc(O)cc1O` [3-(4-hydroxyphenyl)-1-(2,4,6-trihydroxyphenyl)propan-1-one], the “Molar enthalpy of transition or fusion” value in series [1] is 13.5 ± 0.837 kcal/mol. Further, the Triple point temperature in series [2] is recorded as 542.96 ± 1.2 K.
